This is an account of results in paper PMC8467962, “Design and Synthesis of Water-Soluble and Potent MMP-13 Inhibitors with Activity in Human Osteosarcoma Cells” (International Journal of Molecular Sciences, 2021).

The IC50 is the concentration at which inhibition is half-maximal. As usually defined, the solubility is the concentration that dissolves in the medium under given conditions. As a reminder, the melting point is the temperature, or range, at which the solid turns liquid.

The target in data set [1] is T1, recombinantly expressed catalytic domain of MMP-13 (Homo sapiens, UniProt P45452).
T1 construct: containing the catalytic site (amino acid residues −104 to 274); TEV cleavage site (C); 6xHis (C); made in house; host or cells: Escherichia coli BL21-DE3 pLys S
The experiment in a line: Enzymatic activity of recombinantly expressed MMP-13 catalytic domain, dose response of BiPS. The class given is biochemical. The settings on record: recombinantly expressed catalytic domain of MMP-13, after refolding. An excerpt:
To this end, a recombinantly expressed catalytic domain of MMP-13 was purified under denaturing conditions (Figure S6); the process lead to a very pure sample preparation.
(§1) Figure S5. PyMOL stick and cartoon representation of the bidentate interaction established by the hydroxamate and the catalytic Zinc ion in both MMP-13 (left) and MMP-2 (right). Hydrogen bonds are shown in dashed lines, the catalytic zinc ion is shown as grey sphere. For the sake of clarity, no hydrogens are shown.
(§2) Figure S6. SDS-PAGE analysis of the recombinantly expressed catalytic dom ain of MMP-13 purified by metal affinity chromatography. M corresponds to the molecular weight markers ( k D a ) . […]
(§3) Log(BiPS [M]) Log(BiPS [M])
(§4) Figure S7. Dose response curve used to determine IC50 of BiPS for A) recombinantly expressed catalytic domain of MMP-13, and B) commercially available MMP-13 active protein. […]

The target in data set [2] is commercially available MMP-13 active protein (Homo sapiens, UniProt P45452). The experiment in a line: Enzymatic activity of commercial MMP-13, dose response of BiPS. The class given is biochemical.
Text: as §1, §2, §3, §4

The next data set addresses MMP-13 catalytic domain (Homo sapiens, UniProt P45452). The experiment in a line: WaterLOGSY NMR experiment. The settings on record: 5 μM protein, 0.15 mM ligand, 25 °C.
A short description of data set [3]: Thermodynamic solubility (shake flask method). The class given is physicochemical. The settings on record: phosphate buffer, aqueous buffer, thermodynamic from solid; PBS pH 7.4, shake flask, room temperature; read-out: Experimental Water Solubility LogS (converted). How it is done:
The samples were sonicated for 10 min and shaken overnight at 800 rpm (FB15013 TopMix, Fischer Scientific, Waltham, MA, USA) at room temperature. A first phase separation of supernatant and undissolved solid was performed by centrifugation at 5000 rpm for 20 min (Biofuge primo R). The supernatant was then transferred into Eppendorf tubes for a second centrifugation. An adequate dilution was made using the particle-free supernatant and the concentration quantified by LC-HRMS using a 4-point calibration curve (Agilent 1260 Infinity II).
PART A. Calibration curves of compounds for solubility
9e, 10a-e), 4-points calibration curves were made for each compound. Calibrations curves were obtained using four different concentrations of the corresponding compound (0.1 mg/mL, 0.01 mg/mL, 0.001 mg/mL and 0.0001 mg/mL). All samples were prepared in DMSO and measured in a LC-HRMS (Agilent 1260 Infinity II).
Figure S1. Calibration curves of all active compounds (solubility studies) (1, 2, 9a, 9e, 10a-e) […]

Data set [4] addresses T2, MMP-2 (Homo sapiens, UniProt P08253).
T2 construct: the catalytic domains of the corresponding MMP were incubated in triplicate; purchased Enzo Life Science International, Inc
Further details: method as in PMID 30629065. The settings on record: previous work; read-out: MMP-2 IC50; cited from earlier work.

For a further data set, the target named is T3, MMP-13 (Homo sapiens, UniProt P45452).
T3 construct: the catalytic domains of the corresponding MMP were incubated in triplicate; purchased Enzo Life Science International, Inc
Nature of the data set: MMP inhibition assay (MMP Inhibitor Profiling Kit, thiopeptide substrate), MMP-13. The class given is biochemical. As to conditions: catalytic domain, 37 °C, pH 7.5. The procedure: MMP activity measurements were performed using an MMP Inhibitor Profiling Kit purchased from Enzo Life Science International, Inc. (Farmingdale, NY, USA), and following the manufacturer’s protocol with slight modifications. […] Hydrolysis of this bond by MMPs produces a sulfhydryl group that reacts with DTNB to form 2-nitro-5-thiobenzoic acid, which was detected by its absorbance at 414 nm (microplate photometer 90 Thermo Scientific Multiscan FC).
(§5) The assay buffer contained the following components: 50 mM HEPES, 10 mM CaCl2 95, 0.05% Brij-35, and 1 mM DTNB at pH 7.5. After addition of the substrate, the increase of absorbance was recorded in 1 min time intervals for 30 min. Data were plotted as OD versus time for each sample to obtain the reaction velocity (V) in OD per min. The percentage of residual activity for each compound was calculated using the following formula: % of remaining activity = (V in the presence of inhibitor/Vcontrol) × 100. An inhibitor, NNGH, was included as a prototypic control inhibitor.

Data set [5] has as its target T2, MMP-2. Nature of the data set: MMP inhibition assay (MMP Inhibitor Profiling Kit, thiopeptide substrate), MMP-2. The settings on record: catalytic domain, 37 °C, pH 7.5. The class given is biochemical. How it is done: MMP activity measurements were performed using an MMP Inhibitor Profiling Kit purchased from Enzo Life Science International, Inc. (Farmingdale, NY, USA), and following the manufacturer’s protocol with slight modifications. Proteolytic activity was measured using a thiopeptide substrate (Ac-PLG-[2-mercapto-4-methylpentanoyl]-LG-OC2H5) where the MMP cleavage site peptide bond has been replaced by a thioester bond. Hydrolysis of this bond by MMPs produces a sulfhydryl group that reacts with DTNB to form 2-nitro-5-thiobenzoic acid, which was detected by its absorbance at 414 nm (microplate photometer 90 Thermo Scientific Multiscan FC).
as §5, with “Enzyme reactions were carried out at 37 °C in a 100 μL final volume of solutions, where the catalytic domains of the corresponding MMP were incubated in triplicate with at least seven concentrations of inhibitors. The assay” for “The assay”, “control inhibitor. IC50 calculations in MMP-13 and MMP-2 for active compounds are shown in Supplementary Materials (Figure S9)” for “control inhibitor.”
The concentration of the compound that provided 50% inhibition of enzymatic activity (IC50) was determined by using semi-logarithmic dose–response plots (Graph Pad Prism 5.0 for Windows, Graph Pad Software Inc., San Diego, CA, USA, 2007).

The structures appear in SMILES notation. In brackets after ≈: the same amount, converted by molar mass. Like-named read-outs stand apart in the source and are kept apart here. A value given as a limit tells only on which side of the number the result lay.

T2 sequence (P08253 110-446 limits assumed): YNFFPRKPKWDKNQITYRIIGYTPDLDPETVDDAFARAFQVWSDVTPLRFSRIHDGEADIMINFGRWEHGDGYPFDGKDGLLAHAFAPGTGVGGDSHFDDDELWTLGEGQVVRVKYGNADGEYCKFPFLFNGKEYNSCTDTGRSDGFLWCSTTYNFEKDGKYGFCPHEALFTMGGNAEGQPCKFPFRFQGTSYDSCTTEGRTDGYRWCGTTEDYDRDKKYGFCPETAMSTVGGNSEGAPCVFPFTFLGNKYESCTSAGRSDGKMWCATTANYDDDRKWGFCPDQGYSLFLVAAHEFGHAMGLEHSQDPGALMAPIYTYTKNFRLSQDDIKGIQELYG

Take `O=C(NO)[C@@H](Cc1ccccc1)NS(=O)(=O)c1ccc(-c2ccccc2)cc1` [BiPS, (2R)-[(4-biphenylylsulfonyl)amino]-N-hydroxy-3-phenylpropionamide]: the IC50 in data set [1] turned out to be 1.44 nM; in data set [2] it was 2.06 nM. Also, the “Interaction with the MMP-13 catalytic domain (WaterLOGSY)” value at MMP-13 catalytic domain is given as “positive signals”.

For `O=C(NO)C1(S(=O)(=O)c2ccc(-n3cc(CCn4nc5c(Br)c(Br)c(Br)c(Br)c5n4)nn3)cc2)CCOCC1` [Compound 2], the solubility in data set [3] is 2.4 µM (≈ 1.95 µg/mL). The IC50 on MMP-2 [4] was 100 nM.

Regarding `O=C(O)[C@@H](Cc1ccccc1)NS(=O)(=O)c1ccc(-n2cc(CCn3nc4ccccc4n3)nn2)cc1` [Compound 9b, (R)-2-(4-(4-(2-(2H-benzo[d][1–3]triazol-2-yl)ethyl)-1H-1,2,3-triazol-1-yl)phenylsulfonamido)-3-phenylpropanoic acid], the melting point is 246 °C (dec.). This molecule gave an IC50 at MMP-13 of over 100 nM. On MMP-2 [5], this molecule yielded an IC50 of over 100 nM.

The molecule `O=C(O)[C@H](Cc1ccccc1)NS(=O)(=O)c1ccc(-n2cc(CCn3nc4ccccc4n3)nn2)cc1` [Compound 9c, (S)-2-(4-(4-(2-(2H-benzo[d][1–3]triazol-2-yl)ethyl)-1H-1,2,3-triazol-1-yl)phenylsulfonamido)-3-phenylpropanoic acid] came in with a melting point of 227 to 228 °C. Also, the IC50 against MMP-13 is over 100 nM. The molecule further showed an IC50 against MMP-2 [5] of over 100 nM.

As for `O=C(O)[C@@H](Cc1ccccc1)NS(=O)(=O)c1ccc(-n2cc(CCn3nc4c(Br)c(Br)c(Br)c(Br)c4n3)nn2)cc1` [Compound 9d, (R)-2-(4-(4-(2-(perbromo-2H-benzo[d][1–3]triazol-2-yl)ethyl)-1H-1,2,3-triazol-1-yl)phenylsulfonamido)-3-phenylpropanoic acid], the melting point lay within 127 to 130 °C. The molecule also gave an IC50 at MMP-13 of over 100 nM. Further, the IC50 against MMP-2 [5] is over 100 nM.

For the molecule `O=C(NO)C1(S(=O)(=O)c2ccc(-n3cc(CCn4nc5ccccc5n4)nn3)cc2)CCOCC1` [Compound 9e, 4-((4-(4-(2-(2H-benzo[d][1–3]triazol-2-yl)ethyl)-1H-1,2,3-triazol-1-yl)phenyl)sulfonyl)-N-hydroxytetrahydro-2H-pyran-4-carboxamide], the IC50 against MMP-2 [5] was 10.3 ± 2.8 nM. Also, the solubility in data set [3] was 33.9 µM (≈ 16.9 µg/mL).

With `O=C(NO)[C@@H](Cc1ccccc1)NS(=O)(=O)c1ccc(-n2cc(CCN3C(=O)c4ccccc4C3=O)nn2)cc1` [Compound 10a, (R)-2-((4-(4-(2-(1,3-dioxoisoindolin-2-yl)ethyl)-1H-1,2,3-triazol-1-yl)phenyl)sulfonamido)-N-hydroxy-3-phenylpropanamide], the melting point was 177 °C (dec.). It took 3.1 ± 0.9 nM to reach half-maximal inhibition against MMP-2 [5] (IC50). In addition, the solubility in data set [3] was 2.69 µM (≈ 1.51 µg/mL).

Turning to `O=C(NO)[C@@H](Cc1ccccc1)NS(=O)(=O)c1ccc(-n2cc(CCN3C(=O)c4cc(Br)c(Br)cc4C3=O)nn2)cc1` [Compound 10b, (R)-2-((4-(4-(2-(5,6-dibromo-1,3-dioxoisoindolin-2-yl)ethyl)-1H-1,2,3-triazol-1-yl)phenyl)sulfonamido)-N-hydroxy-3-phenylpropanamide], the melting point lay in the range of 187 to 189 °C. This molecule also returned an IC50 at MMP-13 of 46 ± 21 nM. On MMP-2 [5], the IC50 came out at 15 ± 5 nM. In data set [3], the solubility is 3.63 µM (≈ 2.61 µg/mL).

The molecule `O=C(NO)[C@@H](Cc1ccccc1)NS(=O)(=O)c1ccc(-n2cc(CCN3C(=O)c4c(Br)c(Br)c(Br)c(Br)c4C3=O)nn2)cc1` [Compound 10c, (R)-N-hydroxy-3-phenyl-2-((4-(4-(2-(4,5,6,7-tetrabromo-1,3-dioxoisoindolin-2-yl)ethyl)-1H-1,2,3-triazol-1-yl)phenyl)sulfonamido)propenamide] yielded a melting point of 195 to 197 °C. The midpoint of inhibition at MMP-13, the IC50, lay at 61 ± 18 nM. In addition, at MMP-2 [5], the IC50 was found to be 17 ± 4 nM. In addition, the solubility in data set [3] is 0.141 µM (≈ 0.124 µg/mL).

As to `O=C(NO)[C@@H](Cc1ccccc1)NS(=O)(=O)c1ccc(-n2cc(CCN3C(=O)c4ccc(Br)cc4C3=O)nn2)cc1` [Compound 10d, (R)-2-((4-(4-(2-(5-bromo-1,3-dioxoisoindolin-2-yl)ethyl)-1H-1,2,3-triazol-1-yl)phenyl)sulfonamido)-N-hydroxy-3-phenylpropanamide], the melting point is 104 °C (dec.). Also, the IC50 against MMP-2 [5] came to 14 ± 7 nM. In addition, the solubility in data set [3] was 2.29 µM (≈ 1.46 µg/mL).

`Cc1ccc2c(c1)C(=O)N(CCc1cn(-c3ccc(S(=O)(=O)N[C@H](Cc4ccccc4)C(=O)NO)cc3)nn1)C2=O` [Compound 10e, (R)-N-hydroxy-2-((4-(4-(2-(5-methyl-1,3-dioxoisoindolin-2-yl)ethyl)-1H-1,2,3-triazol-1-yl)phenyl)sulfonamido)-3-phenylpropanamide] registered a melting point of 143 to 145 °C. The IC50 on MMP-2 [5] stood at 2.9 ± 1.1 nM. The solubility in data set [3] was 8.32 µM (≈ 4.78 µg/mL).
